Earlier results, collected in article PMC8453963 (Chemmedchem, 2021).
Marks after values point to notes of the source that are not given here.

Conditions: ref [53]

log D oct/PBS: −2.91^[a]
Structure (SMILES): O=C([O-])CN(CCN(CC(=O)[O-])Cc1cc(CCC(=O)NCCCCCC(=O)NCCCC[C@H](NC(=O)N[C@@H](CCC(=O)O)C(=O)O)C(=O)O)ccc1[O-])Cc1cc(CCC(=O)O)ccc1[O-].[68Ga+3].[OH3+] [[^68Ga]Ga‐PSMA‐11]
